In PubChem BioAssay (NCI):
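The concentration for 50% growth inhibition is given as GI50. TGI is the concentration that stops growth completely.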

How the values were obtained:
Test in all cases: inhibition of tumour cell growth, NCI panel, 384-well format
786-0 renal = system: 786-0 renal
A498 renal = system: A498 renal
A549 NSCLC = system: A549 NSCLC
ACHN renal = system: ACHN renal
BT-549 breast = system: BT-549 breast
CAKI-1 renal = system: CAKI-1 renal
CCRF-CEM leukemia = system: CCRF-CEM leukemia
COLO 205 colon = system: COLO 205 colon
DU-145 prostate = system: DU-145 prostate
EKVX NSCLC = system: EKVX NSCLC
HCC-2998 colon = system: HCC-2998 colon
HCT-15 colon = system: HCT-15 colon
HL-60(TB) leukemia = system: HL-60(TB) leukemia
HOP-62 NSCLC = system: HOP-62 NSCLC
HOP-92 NSCLC = system: HOP-92 NSCLC
HS 578T breast = system: HS 578T breast
HT29 colon = system: HT29 colon
IGROV1 ovarian = system: IGROV1 ovarian
KM12 colon = system: KM12 colon
M14 melanoma = system: M14 melanoma
MALME-3M melanoma = system: MALME-3M melanoma
MCF7 breast = system: MCF7 breast
MDA-MB-231 breast = system: MDA-MB-231 breast
MDA-MB-435 melanoma = system: MDA-MB-435 melanoma
MDA-MB-468 breast = system: MDA-MB-468 breast
MOLT-4 leukemia = system: MOLT-4 leukemia
NCI-H226 lung = system: NCI-H226 lung
NCI-H23 lung = system: NCI-H23 lung
NCI-H322M lung = system: NCI-H322M lung
NCI-H460 NSCLC = system: NCI-H460 NSCLC
NCI-H522 lung = system: NCI-H522 lung
NCI/ADR-RES ovarian = system: NCI/ADR-RES ovarian
OVCAR-3 ovarian = system: OVCAR-3 ovarian
OVCAR-4 ovarian = system: OVCAR-4 ovarian
OVCAR-5 ovarian = system: OVCAR-5 ovarian
OVCAR-8 ovarian = system: OVCAR-8 ovarian
PC-3 prostate = system: PC-3 prostate
RPMI-8226 leukemia = system: RPMI-8226 leukemia
RXF 393 renal = system: RXF 393 renal
SF-268 CNS = system: SF-268 CNS
SF-295 CNS = system: SF-295 CNS
SF-539 CNS = system: SF-539 CNS
SK-MEL-2 melanoma = system: SK-MEL-2 melanoma
SK-MEL-28 melanoma = system: SK-MEL-28 melanoma
SK-MEL-5 melanoma = system: SK-MEL-5 melanoma
SK-OV-3 ovarian = system: SK-OV-3 ovarian
SN12C renal = system: SN12C renal
SNB-19 CNS = system: SNB-19 CNS
SNB-75 CNS = system: SNB-75 CNS
SR leukemia = system: SR leukemia
SW-620 colon = system: SW-620 colon
T-47D breast = system: T-47D breast
TK-10 renal = system: TK-10 renal
U251 glioblastoma = system: U251 glioblastoma
UACC-257 melanoma = system: UACC-257 melanoma
UACC-62 melanoma = system: UACC-62 melanoma

SMILES: CC(C)n1nc(-c2ccc3oc(N)nc3c2)c2c(N)ncnc21
- GI50 (786-0 renal): 44.8 nM
- TGI (786-0 renal): 1510 nM
- GI50 (A498 renal): < 10 nM
- TGI (A498 renal): 22 nM
- GI50 (A549 NSCLC): 17.9 nM
- TGI (A549 NSCLC): 259 nM
- GI50 (ACHN renal): 36.2 nM
- TGI (ACHN renal): 347 nM
- GI50 (BT-549 breast): 12.1 nM
- TGI (BT-549 breast): 56.9 nM
- GI50 (CAKI-1 renal): 14.7 nM
- TGI (CAKI-1 renal): 82.8 nM
- GI50 (CCRF-CEM leukemia): 16.1 nM
- TGI (CCRF-CEM leukemia): 258 nM
- GI50 (COLO 205 colon): 12.6 nM
- TGI (COLO 205 colon): 64 nM
- GI50 (DU-145 prostate): 35.4 nM
- TGI (DU-145 prostate): 2680 nM
- GI50 (EKVX NSCLC): 18.2 nM
- TGI (EKVX NSCLC): 122 nM
- GI50 (HCC-2998 colon): 15.3 nM
- TGI (HCC-2998 colon): 5310 nM
- GI50 (HCT-15 colon): < 10 nM
- TGI (HCT-15 colon): 11600 nM
- GI50 (HL-60(TB) leukemia): 326 nM
- TGI (HL-60(TB) leukemia): 3000 nM
- GI50 (HOP-62 NSCLC): 12.4 nM
- TGI (HOP-62 NSCLC): 119 nM
- GI50 (HOP-92 NSCLC): 20.2 nM
- TGI (HOP-92 NSCLC): 190 nM
- GI50 (HS 578T breast): < 10 nM
- TGI (HS 578T breast): 26.4 nM
- GI50 (HT29 colon): 44.5 nM
- TGI (HT29 colon): 10400 nM
- GI50 (IGROV1 ovarian): < 10 nM
- TGI (IGROV1 ovarian): 26.6 nM
- GI50 (KM12 colon): 21.7 nM
- TGI (KM12 colon): 1840 nM
- GI50 (M14 melanoma): 14.7 nM
- TGI (M14 melanoma): 165 nM
- GI50 (MALME-3M melanoma): < 10 nM
- TGI (MALME-3M melanoma): < 10 nM
- GI50 (MCF7 breast): < 10 nM
- TGI (MCF7 breast): 7120 nM
- GI50 (MDA-MB-231 breast): 18.7 nM
- TGI (MDA-MB-231 breast): 681 nM
- GI50 (MDA-MB-435 melanoma): 26.4 nM
- TGI (MDA-MB-435 melanoma): 152 nM
- GI50 (MDA-MB-468 breast): < 10 nM
- TGI (MDA-MB-468 breast): 15.2 nM
- GI50 (MOLT-4 leukemia): 17.7 nM
- TGI (MOLT-4 leukemia): 726 nM
- GI50 (NCI-H226 lung): 10.2 nM
- TGI (NCI-H226 lung): 62.7 nM
- GI50 (NCI-H23 lung): 74.3 nM
- TGI (NCI-H23 lung): 1630 nM
- GI50 (NCI-H322M lung): 14.2 nM
- TGI (NCI-H322M lung): 2270 nM
- GI50 (NCI-H460 NSCLC): < 10 nM
- TGI (NCI-H460 NSCLC): 1870 nM
- GI50 (NCI-H522 lung): < 10 nM
- TGI (NCI-H522 lung): 32.6 nM
- GI50 (NCI/ADR-RES ovarian): 35.9 nM
- TGI (NCI/ADR-RES ovarian): 402 nM
- GI50 (OVCAR-3 ovarian): 22.2 nM
- TGI (OVCAR-3 ovarian): 1160 nM
- GI50 (OVCAR-4 ovarian): 18.5 nM
- TGI (OVCAR-4 ovarian): 56.7 nM
- GI50 (OVCAR-5 ovarian): 24.5 nM
- TGI (OVCAR-5 ovarian): 603 nM
- GI50 (OVCAR-8 ovarian): 40.1 nM
- TGI (OVCAR-8 ovarian): 858 nM
- GI50 (PC-3 prostate): < 10 nM
- TGI (PC-3 prostate): 85.3 nM
- GI50 (RPMI-8226 leukemia): < 10 nM
- TGI (RPMI-8226 leukemia): < 10 nM
- GI50 (RXF 393 renal): 12.5 nM
- TGI (RXF 393 renal): 50.3 nM
- GI50 (SF-268 CNS): 40.8 nM
- TGI (SF-268 CNS): 579 nM
- GI50 (SF-295 CNS): 27.8 nM
- TGI (SF-295 CNS): 380 nM
- GI50 (SF-539 CNS): 32.8 nM
- TGI (SF-539 CNS): 626 nM
- GI50 (SK-MEL-2 melanoma): 53.7 nM
- TGI (SK-MEL-2 melanoma): 92.1 nM
- GI50 (SK-MEL-28 melanoma): 18.7 nM
- TGI (SK-MEL-28 melanoma): 83.9 nM
- GI50 (SK-MEL-5 melanoma): 13.8 nM
- TGI (SK-MEL-5 melanoma): 45.8 nM
- GI50 (SK-OV-3 ovarian): < 10 nM
- TGI (SK-OV-3 ovarian): 42 nM
- GI50 (SN12C renal): 10.5 nM
- TGI (SN12C renal): 1450 nM
- GI50 (SNB-19 CNS): 69.6 nM
- TGI (SNB-19 CNS): 10600 nM
- GI50 (SNB-75 CNS): < 10 nM
- TGI (SNB-75 CNS): 42 nM
- GI50 (SR leukemia): 17.3 nM
- TGI (SR leukemia): 63.5 nM
- GI50 (SW-620 colon): 113 nM
- TGI (SW-620 colon): 3140 nM
- GI50 (T-47D breast): < 10 nM
- TGI (T-47D breast): < 10 nM
- GI50 (TK-10 renal): 11.6 nM
- TGI (TK-10 renal): 109 nM
- GI50 (U251 glioblastoma): 66.2 nM
- TGI (U251 glioblastoma): 7220 nM
- GI50 (UACC-257 melanoma): 51.4 nM
- TGI (UACC-257 melanoma): 523 nM
- GI50 (UACC-62 melanoma): 18.4 nM
- TGI (UACC-62 melanoma): 78 nM
